Experiments:
[1] = system: MS sera; experiment: PEPSCAN-based ELISA, binding of MS sera to library peptides; design: species or system human; conditions: ELISA binding value, MS sera n = 9
Description: (§1) The linear and CLIPS peptides are synthesized based on the amino acid sequence of the target protein using standard Fmoc-chemistry and deprotected using […] with scavengers. The constrained peptides are synthesized on chemical scaffolds in order to reconstruct conformational epitopes, using Chemically Linked Peptides on Scaffolds (CLIPS) technology (Timmerman et al. (2007). For example, the single looped peptides are synthesized containing a dicysteine, which was cyclized by treating with alpha, alpha′-dibromoxylene and the size of the loop is varied by introducing cysteine residues at variable spacing. If other cysteines besides the newly introduced cysteines are present, they are replaced by alanine. The side-chains of the multiple cysteines in the peptides are coupled to CLIPS templates by reacting onto credit-card format polypropylene PEPSCAN cards (455 peptide formats/card) with a 0.5 mM solution of CLIPS template such as 1,3-bis (bromomethyl) benzene in ammonium bicarbonate (20 mM, pH 7.9)/acetonitrile (1:1(v/v)). The cards are gently shaken in the solution for 30 to 60 minutes while completely covered in solution. Finally, the cards are washed extensively with excess of H2O and sonicated in distrupt-buffer containing 1 percent SDS/0.1 percent beta-mercaptoethanol in PBS (pH 7.2) at 70° C. for 30 minutes, followed by sonication in H2O for another 45 minutes.
(§2) The binding of antibody to each peptide is tested in a PEPSCAN-based ELISA. The 455-well credit card format polypropylene cards containing the covalently linked peptides are incubated with primary antibody solution for example consisting of 1/1000 diluted serum in blocking solution, for example 4% horse serum, 5% ovalbumin (w/v) in PBS/1% Tween. After washing, the peptides are incubated with a 1/1000 dilution of antibody peroxidase conjugate for one hour at 25° C. After washing, the peroxidase substrate 2,2′-azino-di-3-ethylbenzthiazoline sulfonate (ABTS) and 2 microlitres of 3 percent H2O2 are added. After one hour, the color development are measured. The color development are quantified with a charge coupled device (CCD)-camera and an image processing system (Slootstra et al., 1996).
(§3) The raw data are optical values obtained by a CCD-camera calibrated to export absorption values compatible with a standard 96-well plate ELISA-reader. First the CCD-camera makes a picture of the card before peroxidase coloring and then again a picture after the peroxidase coloring. These two pictures are substracted from each other yielding a binding value for each peptide.
(§4) All peptides have been synthesized in a peptide array format and the binding of 20 different sera to all peptide libraries were measured in an ELISA based set up following the procedure described in detail in the method section “Peptide synthesis and screening assays”. In particular 2 sets of experiments were performed on the 2 libraries by using 2 different dilutions of the human patients sera. In the first set of experiment the 20 sera were used at 1:2500 dilutions, while in the second experiment the dilution of the sera was 1:1000. The binding of the different sera to all peptides was quantified and analyzed in detail (Tables 1 and 2, FIGS. 15A, B, C, D and […]

[2] = system: CTRL sera; experiment: PEPSCAN-based ELISA, binding of control (CTRL) sera to library peptides; design: species or system human; conditions: ELISA binding value, CTRLs n = 10
Description: as §1, §2, §3, §4

CNFARKRIKNPEGGLYCSYLNFARKRIKNPEGC [SEQ ID NO: 97]
MEAN MS ([1]; NOX2 library): 752.333
MEAN CTRL ([2]; NOX2 library): 416.6

CNITVSEQKISAAGKIC [SEQ ID NO: 105]
MEAN MS ([1]; NOX2 library): 828.167
MEAN CTRL ([2]; NOX2 library): 460.55

CNITVSEQKISEWGKICGDRQNESYLNFARKRC [SEQ ID NO: 144]
MEAN MS ([1]; NOX2 library): 816.722
MEAN CTRL ([2]; NOX2 library): 446.7

CNITVSEQKISEWGKICQNESYLNFARKRIKNC [SEQ ID NO: 81]
MEAN MS ([1]; NOX2 library): 770.889
MEAN CTRL ([2]; NOX2 library): 408.8

CNITVSEQKISEWGKICSYLNFARKRIKNPEGC [SEQ ID NO: 99]
MEAN MS ([1]; NOX2 library): 738.444
MEAN CTRL ([2]; NOX2 library): 397.7

CNSDPYSVALSELGDRCITVSEQKISEWGKIKC [SEQ ID NO: 143]
MEAN MS ([1]; NOX2 library): 781.611
MEAN CTRL ([2]; NOX2 library): 456.45

CNSDPYSVALSELGDRCVSEQKISEWGKIKESC [SEQ ID NO: 130]
MEAN MS ([1]; NOX2 library): 764.528
MEAN CTRL ([2]; NOX2 library): 434.925

CNSLMQLNDDTRLYCLSSEGSLSPSSLSC [Peptide 6]
MEAN MS ([1]; 5HT2A receptor library): 418.89
MEAN CTRL ([2]; 5HT2A receptor library): 249.55

CNSLMQLNDDTRLYCMDILSEENTSLSSC [Peptide 1]
MEAN MS ([1]; 5HT2A receptor library): 445.78
MEAN CTRL ([2]; 5HT2A receptor library): 252.10

CNSLMQLNDDTRLYCYSNDFNSGEANTSC [Peptide 34]
MEAN MS ([1]; 5HT2A receptor library): 459.72
MEAN CTRL ([2]; 5HT2A receptor library): 268.10

CNSLMQLNDTRLYCSGEANTSDAFNWTC [Peptide 19]
MEAN MS ([1]; 5HT2A receptor library): 564.11
MEAN CTRL ([2]; 5HT2A receptor library): 299.55

CPYSVALSELGDRQNECITVSEQKISEWGKIKC [SEQ ID NO: 124]
MEAN MS ([1]; NOX2 library): 824.056
MEAN CTRL ([2]; NOX2 library): 469.75

CQKISEWGKIKAAPIPC [SEQ ID NO: 153]
MEAN MS ([1]; NOX2 library): 710.778
MEAN CTRL ([2]; NOX2 library): 402.15

CQKISEWGKIKESPIPCQNESYLNFARKRIKNC [SEQ ID NO: 69]
MEAN MS ([1]; NOX2 library): 855.111
MEAN CTRL ([2]; NOX2 library): 458.3

CQKISEWGKIKESPIPCTVSEQKISEWGKIKEC [SEQ ID NO: 93]
MEAN MS ([1]; NOX2 library): 846.833
MEAN CTRL ([2]; NOX2 library): 476.45

CQKISEWGKIKESPIPCVHNITVSEQKISEWGC [SEQ ID NO: 149]
MEAN MS ([1]; NOX2 library): 442.611
MEAN CTRL ([2]; NOX2 library): 263.25

CQKISEWGKIKESPIPCVSEQKISEWGKIKESC [SEQ ID NO: 98]
MEAN MS ([1]; NOX2 library): 815.972
MEAN CTRL ([2]; NOX2 library): 450.975

CQNESYLNFARKRIKNC [SEQ ID NO: 90]
MEAN MS ([1]; NOX2 library): 667.389
MEAN CTRL ([2]; NOX2 library): 361.75

CQNESYLNFARKRIKNCNFARKRIKNPEGGLYC [SEQ ID NO: 150]
MEAN MS ([1]; NOX2 library): 697.056
MEAN CTRL ([2]; NOX2 library): 392.3

CQNESYLNFARKRIKNCSYLNFARKRIKNPEGC [SEQ ID NO: 135]
MEAN MS ([1]; NOX2 library): 711.556
MEAN CTRL ([2]; NOX2 library): 396.7

CQNESYLNFARKRIKNCVSEQKISEWGKIKESC [SEQ ID NO: 111]
MEAN MS ([1]; NOX2 library): 747.139
MEAN CTRL ([2]; NOX2 library): 419.075

CQTAESLAVHNITVSECQNESYLNFARKRIKNC [SEQ ID NO: 100]
MEAN MS ([1]; NOX2 library): 697.667
MEAN CTRL ([2]; NOX2 library): 367.45

CQTAESLAVHNITVSECVSEQKISEWGKIKESC [SEQ ID NO: 139]
MEAN MS ([1]; NOX2 library): 590.111
MEAN CTRL ([2]; NOX2 library): 339.65

CRQNESYLNFARKRIKC [SEQ ID NO: 95]
MEAN MS ([1]; NOX2 library): 653.944
MEAN CTRL ([2]; NOX2 library): 350.1

CRVNNSDPYSVALSELCQNESYLNFARKRIKNC [SEQ ID NO: 137]
MEAN MS ([1]; NOX2 library): 743.167
MEAN CTRL ([2]; NOX2 library): 398.05

CRVNNSDPYSVALSELCVSEQKISEWGKIKESC [SEQ ID NO: 151]
MEAN MS ([1]; NOX2 library): 731.111
MEAN CTRL ([2]; NOX2 library): 422.275

CSDAFNWTVDSENRCMDILSEENTSLSSC [Peptide 22]
MEAN MS ([1]; 5HT2A receptor library): 394.00
MEAN CTRL ([2]; 5HT2A receptor library): 207.20

CSELGDRQNESYLNFACQNESYLNFARKRIKNC [SEQ ID NO: 80]
MEAN MS ([1]; NOX2 library): 773.167
MEAN CTRL ([2]; NOX2 library): 398.9

CSEQKISEWGKIKESPC [SEQ ID NO: 114]
MEAN MS ([1]; NOX2 library): 501.167
MEAN CTRL ([2]; NOX2 library): 271.75

CSLSSTTNSLMQLNCMDILSEENTSLSSC [Peptide 18]
MEAN MS ([1]; 5HT2A receptor library): 323.72
MEAN CTRL ([2]; 5HT2A receptor library): 188.90

CSSLSLLHLQEKNWCMDILSEENTSLSSC [Peptide 45]
MEAN MS ([1]; 5HT2A receptor library): 318.17
MEAN CTRL ([2]; 5HT2A receptor library): 198.50

From US11505592B2, “Diagnosis and therapy of multiple sclerosis” (PRINDEX S.R.L., priority 2015, dated 2022)
